Key:
Format in all cases: cell-based
[1] = target: T1, human TLR7 (Homo sapiens, UniProt Q9NYK1); assay: TLR7 inhibition reporter assay (HEK-Blue cells, SEAP reporter, gardiquimod stimulation); conditions: HEK-Blue cells overexpressing human TLR7, SEAP reporter, gardiquimod 7.5 μM
T1 construct: host or cells: HEK-Blue cells (HEK293-derived reporter line)
T1 sequence (Q9NYK1 27-1049): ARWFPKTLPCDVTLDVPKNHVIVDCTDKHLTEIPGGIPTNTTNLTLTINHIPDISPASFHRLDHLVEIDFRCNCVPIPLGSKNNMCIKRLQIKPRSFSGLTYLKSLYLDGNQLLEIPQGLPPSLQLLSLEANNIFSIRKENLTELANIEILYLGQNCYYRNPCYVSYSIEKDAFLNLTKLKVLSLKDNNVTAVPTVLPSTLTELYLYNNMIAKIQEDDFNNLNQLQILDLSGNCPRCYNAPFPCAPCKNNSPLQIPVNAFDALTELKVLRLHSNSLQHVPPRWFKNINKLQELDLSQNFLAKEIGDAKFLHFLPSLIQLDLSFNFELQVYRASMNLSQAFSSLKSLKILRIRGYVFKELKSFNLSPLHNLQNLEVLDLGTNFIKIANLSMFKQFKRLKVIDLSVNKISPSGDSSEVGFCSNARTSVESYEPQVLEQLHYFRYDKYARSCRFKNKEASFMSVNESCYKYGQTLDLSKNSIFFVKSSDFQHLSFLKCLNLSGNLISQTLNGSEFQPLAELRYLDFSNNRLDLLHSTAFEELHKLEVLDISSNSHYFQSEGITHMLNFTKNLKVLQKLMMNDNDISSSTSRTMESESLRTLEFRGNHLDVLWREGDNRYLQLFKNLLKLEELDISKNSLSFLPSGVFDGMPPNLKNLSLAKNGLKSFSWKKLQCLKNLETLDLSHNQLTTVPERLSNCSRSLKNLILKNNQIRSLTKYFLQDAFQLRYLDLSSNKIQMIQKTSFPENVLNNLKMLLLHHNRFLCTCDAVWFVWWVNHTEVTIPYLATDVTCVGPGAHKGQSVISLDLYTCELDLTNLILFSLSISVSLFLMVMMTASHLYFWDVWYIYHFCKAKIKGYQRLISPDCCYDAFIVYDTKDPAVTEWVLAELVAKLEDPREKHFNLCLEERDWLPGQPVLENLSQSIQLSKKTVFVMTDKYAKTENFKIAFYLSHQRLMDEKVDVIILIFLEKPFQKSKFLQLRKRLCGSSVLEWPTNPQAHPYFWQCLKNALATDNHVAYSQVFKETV
How it was run: (§1)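 HEK-Blue cells overexpressing the receptor, with NF-κB/AP-1-driven SEAP, were pre-treated 30 min at room temperature with compound (0.05 nM–50 μM), then stimulated with gardiquimod 7.5 μM (TLR7), R848 15.9 μM (TLR8) or ODN2006 5 nM (TLR9). SEAP was read after 22 h at 37 °C as percent inhibition.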

[2] = target: T2, human TLR8 (Homo sapiens, UniProt Q9NR97); assay: TLR8 inhibition reporter assay (HEK-Blue cells, SEAP reporter, R848 stimulation); conditions: HEK-Blue cells overexpressing human TLR8, SEAP reporter, R848 15.9 μM
T2 construct: host or cells: HEK-Blue cells (HEK293-derived reporter line)
T2 sequence (Q9NR97 27-1041): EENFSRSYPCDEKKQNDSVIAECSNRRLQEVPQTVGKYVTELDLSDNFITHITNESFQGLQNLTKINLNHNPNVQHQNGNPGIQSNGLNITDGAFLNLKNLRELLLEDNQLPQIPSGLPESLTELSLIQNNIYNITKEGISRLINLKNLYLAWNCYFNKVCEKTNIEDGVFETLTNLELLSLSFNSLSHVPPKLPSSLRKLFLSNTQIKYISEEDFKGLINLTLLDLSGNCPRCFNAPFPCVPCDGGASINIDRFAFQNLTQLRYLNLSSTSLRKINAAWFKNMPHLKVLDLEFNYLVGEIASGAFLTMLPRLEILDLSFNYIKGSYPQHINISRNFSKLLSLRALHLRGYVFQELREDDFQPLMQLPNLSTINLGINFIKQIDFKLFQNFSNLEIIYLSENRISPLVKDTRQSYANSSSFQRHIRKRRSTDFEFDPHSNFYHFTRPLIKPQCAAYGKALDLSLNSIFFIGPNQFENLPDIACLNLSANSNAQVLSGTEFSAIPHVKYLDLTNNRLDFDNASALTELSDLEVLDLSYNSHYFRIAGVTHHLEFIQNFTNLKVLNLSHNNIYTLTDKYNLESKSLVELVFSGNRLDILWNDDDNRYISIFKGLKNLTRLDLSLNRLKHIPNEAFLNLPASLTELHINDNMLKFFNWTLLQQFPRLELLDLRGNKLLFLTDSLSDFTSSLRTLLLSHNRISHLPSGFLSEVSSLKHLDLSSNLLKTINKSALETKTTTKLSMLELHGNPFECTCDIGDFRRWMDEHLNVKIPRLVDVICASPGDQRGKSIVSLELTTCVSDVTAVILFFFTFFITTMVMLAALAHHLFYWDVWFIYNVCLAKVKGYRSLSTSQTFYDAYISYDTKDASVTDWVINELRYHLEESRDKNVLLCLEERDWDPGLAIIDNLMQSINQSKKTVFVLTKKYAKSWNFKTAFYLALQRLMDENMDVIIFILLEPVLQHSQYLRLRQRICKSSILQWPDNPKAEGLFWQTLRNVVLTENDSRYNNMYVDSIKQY
How it was run: as §1

[3] = target: T3, human TLR9 (Homo sapiens, UniProt Q9NR96); assay: TLR9 inhibition reporter assay (HEK-Blue cells, SEAP reporter, ODN2006 stimulation); conditions: HEK-Blue cells overexpressing human TLR9, SEAP reporter, ODN2006 5 nM
T3 construct: host or cells: HEK-Blue cells (HEK293-derived reporter line)
T3 sequence (Q9NR96 26-1032): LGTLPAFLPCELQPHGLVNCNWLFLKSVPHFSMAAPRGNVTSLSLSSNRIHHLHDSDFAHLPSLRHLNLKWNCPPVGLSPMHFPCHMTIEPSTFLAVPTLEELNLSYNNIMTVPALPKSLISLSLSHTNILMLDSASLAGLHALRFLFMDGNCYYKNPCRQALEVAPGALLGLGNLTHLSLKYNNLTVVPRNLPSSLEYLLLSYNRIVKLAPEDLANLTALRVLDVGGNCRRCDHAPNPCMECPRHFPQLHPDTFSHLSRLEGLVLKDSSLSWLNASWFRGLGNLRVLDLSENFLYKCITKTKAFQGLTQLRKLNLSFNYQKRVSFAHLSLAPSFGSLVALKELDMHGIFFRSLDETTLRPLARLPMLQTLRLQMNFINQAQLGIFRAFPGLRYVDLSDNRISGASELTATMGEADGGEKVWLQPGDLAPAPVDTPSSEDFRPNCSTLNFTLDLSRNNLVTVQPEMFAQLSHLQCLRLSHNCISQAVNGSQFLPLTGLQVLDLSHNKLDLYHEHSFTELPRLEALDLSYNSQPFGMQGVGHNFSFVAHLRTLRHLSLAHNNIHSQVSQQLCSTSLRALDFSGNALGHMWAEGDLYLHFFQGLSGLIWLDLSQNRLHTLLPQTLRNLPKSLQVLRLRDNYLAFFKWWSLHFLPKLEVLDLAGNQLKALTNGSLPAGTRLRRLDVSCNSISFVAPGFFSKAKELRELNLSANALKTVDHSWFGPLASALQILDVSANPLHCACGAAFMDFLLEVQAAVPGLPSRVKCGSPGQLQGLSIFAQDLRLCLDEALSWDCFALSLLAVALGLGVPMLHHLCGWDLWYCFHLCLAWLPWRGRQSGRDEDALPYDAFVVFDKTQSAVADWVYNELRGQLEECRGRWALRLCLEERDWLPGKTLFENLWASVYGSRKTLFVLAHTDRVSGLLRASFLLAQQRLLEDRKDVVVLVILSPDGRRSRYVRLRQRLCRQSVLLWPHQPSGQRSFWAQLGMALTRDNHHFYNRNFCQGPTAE
How it was run: as §1

SMILES | IC50 [1] | IC50 [2] | IC50 [3]
COc1cc(-c2[nH]c3ccc(C4CCN(CC(=O)N(C)C)CC4)cc3c2C(C)C)cc2nccn12 [Example 357, 2-(4-(3-isopropyl-2-(5-methoxyimidazo[1,2-a]pyridin-7-yl)-1H-indol-5-yl)piperidin-1-yl)-N,N-dimethylacetamide] | 100 to 1000 nM | 100 to 1000 nM | 100 to 1000 nM
COc1cc(-c2[nH]c3ccc(C4CCN(CC(C)(C)O)CC4)cc3c2C(C)C)cc2nccn12 [Example 758, 1-(4-(3-isopropyl-2-(5-methoxyimidazo[1,2-a]pyridin-7-yl)-1H-indol-5-yl)piperidin-1-yl)-2-methylpropan-2-ol] | 100 to 1000 nM | < 100 nM | 100 to 1000 nM
CCc1c(-c2cccc3c2cnn3C)[nH]c2ccc(C3CCNCC3)cc12 [Example 100, 4-(3-ethyl-5-(piperidin-4-yl)-1H-indol-2-yl)-1-methyl-1H-indazole] | 1000 to 50000 nM | > 50000 nM | 1000 to 50000 nM
CC(C)c1c(-c2cc(F)c3nccn3c2)[nH]c2ccc(C3CCNCC3)cc12 [Example 118, 8-fluoro-6-(3-isopropyl-5-(piperidin-4-yl)-1H-indol-2-yl)imidazo[1,2-a]pyridine] | < 100 nM | < 100 nM | 100 to 1000 nM
Cc1cc(-c2[nH]c3ccc(C4CCN(Cc5ccn(C)n5)CC4)cc3c2C(C)C)cc2cnnn12 [Example 891, 5-(3-isopropyl-5-(1-((1-methyl-1H-pyrazol-3-yl)methyl)piperidin-4-yl)-1H-indol-2-yl)-7-methyl-[1,2,3]triazolo[1,5-a]pyridine] | < 100 nM | < 100 nM | 100 to 1000 nM
CC(C)c1c(-c2ccn3nncc3c2)[nH]c2ccc(C3CCN(C4CCOCC4)CC3)cc12 [Example 696, 5-(3-isopropyl-5-(1-(tetrahydro-2H-pyran-4-yl)piperidin-4-yl)-1H-indol-2-yl)-[1,2,3]triazolo[1,5-a]pyridine] | < 100 nM | 100 to 1000 nM | 1000 to 50000 nM
Cc1cc(-c2[nH]c3ccc(C4CCNCC4)cc3c2C(C)C)cc2cccnc12 [Example 141, 6-(3-isopropyl-5-(piperidin-4-yl)-1H-indol-2-yl)-8-methylquinoline] | < 100 nM | < 100 nM | 1000 to 50000 nM
Cc1nc2c(-c3[nH]c4ccc(C5CCN(CC(=O)N(C)C)CC5)cc4c3C(C)C)ccc(C)n2n1 [Example 384, 2-(4-(2-(2,5-dimethyl-[1,2,4]triazolo[1,5-a]pyridin-8-yl)-3-isopropyl-1H-indol-5-yl)piperidin-1-yl)-N,N-dimethylacetamide] | 1000 to 50000 nM | 100 to 1000 nM | 1000 to 50000 nM
Cc1cc2cc(-c3[nH]c4ccc(C5CCN(C6COC6)CC5)cc4c3C(C)C)cc(CC(C)C)n2n1 [Example 716, 7-isobutyl-5-(3-isopropyl-5-(1-(oxetan-3-yl)piperidin-4-yl)-1H-indol-2-yl)-2-methylpyrazolo[1,5-a]pyridine] | > 3130 nM | > 3130 nM | 1000 to 50000 nM

Now from value to compound:

IC50 [1] | IC50 [2] | IC50 [3] | SMILES
< 100 nM | < 100 nM | > 50000 nM | CC(C)c1c(-c2cn(C)c3ncccc23)[nH]c2ccc(C3CCN(CCC#N)CC3)cc12 [Example 959, 3-(4-(3-isopropyl-2-(1-methyl-1H-pyrrolo[2,3-b]pyridin-3-yl)-1H-indol-5-yl)piperidin-1-yl)propanenitrile]
< 100 nM | < 100 nM | 1000 to 50000 nM | Cc1cc(-c2[nH]c3ccc(C4CCN(C(=O)CN(C)C(C)(C)C)CC4)cc3c2C(C)C)cn2nnnc12 [Example 481, 2-(tert-butyl(methyl)amino)-1-(4-(3-isopropyl-2-(8-methyltetrazolo[1,5-a]pyridin-6-yl)-1H-indol-5-yl)piperidin-1-yl)ethan-1-one]
< 100 nM | < 100 nM | 1000 to 50000 nM | CC(=O)N1CCCN(CC(=O)N2CCC(c3ccc4[nH]c(-c5ccnc6[nH]ncc56)c(C(C)C)c4c3)CC2)CC1 [Example 586, 2-(4-acetyl-1,4-diazepan-1-yl)-1-(4-(3-isopropyl-2-(1H-pyrazolo[3,4-b]pyridin-4-yl)-1H-indol-5-yl)piperidin-1-yl)ethan-1-one]
< 100 nM | < 100 nM | < 100 nM | CCc1c(-c2ccnc3[nH]ccc23)[nH]c2ccc(C3CCN(C4CCN(C)CC4)CC3)cc12 [Example 839, 4-(3-ethyl-5-(1′-methyl-[1,4′-bipiperidin]-4-yl)-1H-indol-2-yl)-1H-pyrrolo[2,3-b]pyridine]
< 100 nM | < 100 nM | 100 to 1000 nM | CCc1c(-c2ccnc3[nH]cnc23)[nH]c2ccc(C3CCNCC3)cc12 [Example 59, 7-(3-ethyl-5-(piperidin-4-yl)-1H-indol-2-yl)-3H-imidazo[4,5-b]pyridine]
